Laboratory results reported in US9944690B2, “Methods for controlling T cell proliferation” (BELLICUM PHARMACEUTICALS, INC., priority 2013, dated 2018).
Entries after “also recorded” stand apart in the source; their conditions may differ. Read-outs that look alike come from different tables or passages of the source.

Columns and labels:
[1] = system: CAPAN-1-GFP tumor cells; assay: Co-culture of iMC-enabled T cells with CAPAN-1 tumor cells; assay type: cell-based, human; details: RV-172 T cells : CAPAN-1-GFP 5:1, 10 nM AP1903, 72 hours
[2] = cited from earlier work
[3] = system: T cells transduced with RV-172; assay: T cell proliferation in co-culture wells on AP1903 stimulation; details: RV-172 T cells with 10 nM AP1903, co-culture 72 hours, both donors
Experimental: Non-transduced T cells or cells transduced with RV-171 (control vector) or RV-172 (iMC vector) were cultured at a 5:1 ratio of T cells to tumor cells in media supplemented with 50 U/ml IL-2, and either with or without 10 nM AP1903. Co-cultures were then incubated at 37° C. and 5% CO2 for 72 hours. Cultures were subsequently analyzed for the presence of GFP tumor cells by fluorescent microscopy and by harvesting the cultures with 0.25% trypsin/EDTA and measuring the frequency of GFP^+CD3^− tumor cells in the culture by flow cytometry.
Following these initial observations, T cells and tumor cells were harvested and analyzed by flow cytometry to determine the frequency of remaining CAPAN-1 GFP^+ tumor cells.

[4] = system: cells; assay: Amount of AP1903 needed in vitro for effective signaling of cells; assay type: cell-based
Experimental: The amount of AP1903 needed in vitro for effective signaling of cells is about 10-100 nM (MW: 1412 Da). This equates to 14-140 μg/L or ˜0.014-0.14 mg/kg (1.4-140 μg/kg). The dosage may vary according to the application, and may, in certain examples, be more in the range of 0.1-10 nM, or in the range of 50-150 nM, 10-200 nM, 75-125 nM, 100-500 nM, 100-600 nM, 100-700 nM, 100-800 nM, or 100-900 nM. Doses up to 1 mg/kg were well-tolerated in the Phase I study of AP1903 described above.

[5] = system: T cells transduced with the retrovirus containing iMC (RV-172); assay: AP1903-induced T cell activation by cytokine production (Bio-Plex 27-plex); assay type: cell-based, human; details: iMC (RV-172) T cells, 10 nM AP1903, 24 hours, supernatant
Experimental: 5. To assess AP1903-dependent T cell activation of T cells, 1×10^5 non-transduced (NT) or T cells transduced with the control retrovirus (RV-171) or the retrovirus containing iMC(RV-172) were plated in triplicate in 96-well plates and cultured at 37° C. 5% CO2 with media alone, or media containing 10 nM AP1903.
6. After 24 hours, the cells were gently mixed and the plate was centrifuged. Supernatant was then collected and plated into a Bio-Plex Human Cytokine/Chemokine 27-plex plate, which measures the following cytokines and chemokines: • a. Basic-FGF, G-CSF, GM-CSF, IFN-gamma, IL-1Ra, IL-1beta, IL-2, IL-4, IL-5, IL-6, […], IL-7, […], IL-9, IL-10, IL-12p70, IL-13, IL-15, IL-17RA, eotaxin, IP10, MCP-1, MIP-1alpha, MIP-1beta, PDGF-bb, RANTES, TNF-alpha and VEGF. • b. The cytokines and chemokines in the supernatants were subsequently measured and compared to standards in the plate using a Bio-Plex MAGPIX Multiplex Reader.
T cells were stimulated with 10 nM AP1903 for 24 hours then supernatants were assayed for cytokine levels.

In the case of `CC[C@H](C(=O)N1CCCC[C@H]1C(=O)O[C@H](CCc1ccc(OC)c(OC)c1)c1cccc(OCC(=O)NCCNC(=O)COc2cccc([C@@H](CCc3ccc(OC)c(OC)c3)OC(=O)[C@@H]3CCCCN3C(=O)[C@@H](CC)c3cc(OC)c(OC)c(OC)c3)c2)c1)c1cc(OC)c(OC)c(OC)c1` (relative stereo) [AP1903, 2-Piperidinecarboxylic acid, 1-[(2S)-1-oxo-2-(3,4,5-trimethoxyphenyl)butyl]-, 1,2-ethanediylbis[imino(2-oxo-2,1-ethanediyl)oxy-3,1-phenylene[(1R)-3-(3,4-dimethoxyphenyl)propylidene]]ester, [2S-[1(R*),2R*[S*[S*[1(R*),2R*]]]]]-(9Cl)], the “GFP+ tumor cells by flow cytometry” value [1] is given as “reduction of GFP^+ tumor cells; also recorded: induces T cell killing of tumor cells”, the “GFP+ tumor cells by fluorescent microscopy” value [1] is given as “very few viable GFP^+ tumor cells; also recorded: elimination of GFP^+ tumor cells” and the “relation of AP1903 plasma levels to dose” value ([2]; 0.01, 0.05, 0.1, 0.5 and 1.0 mg/kg IV over 2 hours) is given as “directly proportional to dose”. The “plasma level as % of maximal concentration” value (“plasma level as %” for short) ([2]; 0.5 hours post-dose) was “approximately 18%”, the “plasma level as %” value ([2]; 2 hours post-dose) was roughly 7% and the “plasma level as %” value ([2]; 10 hours post-dose) was roughly 1%. For the same compound, the well-tolerated doses ([2]; Phase I study) was “up to 1 mg/kg”, the “mean Cmax” value ([2]; plasma, single doses over the 0.01-1.0 mg/kg dose range infused IV over 2 hours, 24 healthy volunteers) was 10 to 1275 ng/mL and the “T cell proliferation / T cell blast activation (inspection, microscopy)” value [3] was “proliferating; also recorded: activation of T cell blasts”. The “amount needed for effective signaling, as dose” value ([4]; converted from 14-140 μg/L) was 14 to 140 µg/kg, the “amount needed for effective signaling, as mass concentration” value ([4]; converted with MW 1412 Da) was 14 to 140 µg/L and the “amount needed for effective signaling, as dose” value ([4]; figure in brackets after the mg/kg range) was 1.4 to 140 µg/kg. For the same compound, the “amount needed in vitro for effective signaling of cells” value ([4]; in vitro) was 10 to 100 nM, the Basic-FGF secretion [5] was “did not appear to be induced” and the G-CSF secretion [5] was “did not appear to be induced”. The GM-CSF secretion [5] was “showed induction”, the IFN-gamma secretion [5] was “showed induction” and the IL-1Ra secretion [5] was “did not appear to be induced”. The IL-1beta secretion [5] was “showed induction”, the IL-2 secretion [5] was “did not appear to be induced” and the IL-4 secretion [5] was “showed induction”. For the same compound, the IL-5 secretion [5] was “showed induction”, the IL-6 secretion [5] was “showed induction” and the IL-7 secretion [5] was “did not appear to be induced”. The IL-8 secretion [5] was “showed induction”, the IL-9 secretion [5] was “did not appear to be induced” and the IL-10 secretion [5] was “did not appear to be induced”. For the same compound, the IL-12p70 secretion [5] was “showed induction”, the IL-13 secretion [5] was “showed induction” and the IL-15 secretion [5] was “did not appear to be induced”. For the same compound, the IL-17RA secretion [5] was “did not appear to be induced”, the IP10 secretion [5] was “showed induction” and the MCP-1 secretion [5] was “did not appear to be induced”. For the same compound, the MIP-1alpha secretion [5] was “showed induction”, the MIP-1beta secretion [5] was “showed induction” and the PDGF-bb secretion [5] was “did not appear to be induced”. For the same compound, the RANTES secretion [5] was “showed induction”, the TNF-alpha secretion [5] was “showed induction” and the VEGF secretion [5] was “did not appear to be induced”. The eotaxin secretion [5] was “did not appear to be induced”.
